Results: publication PMC12300041, “Tricyclic Isatin Derivatives as Anti-Inflammatory Compounds with High Kinase Binding Affinity” (Molecules, 2025)

Experiments:
Test in all cases: KINOMEscan
Format in all cases: binding
ABL1 (H396P)-non-P = biological target: T1, ABL1 (H396P)-non-P (Homo sapiens, UniProt P00519, H396P)
T1 construct: purchased Eurofins DiscoverX KINOMEscan
In short: (§1)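 Competition binding run for 1 h at room temperature; kinase left unbound by compound was captured on an immobilized affinity ligand and quantified by qPCR. Kd was taken from a 12-point half-log dilution series with a 33 μM top concentration.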

ABL1 (Q252H)-P = biological target: T2, ABL1 (Q252H)-P (Homo sapiens, UniProt P00519, Q252H)
T2 construct: purchased Eurofins DiscoverX KINOMEscan
In short: as §1

ABL1 (T315I)-non-P = biological target: T3, ABL1 (T315I)-non-P (Homo sapiens, UniProt P00519, T315I)
T3 construct: purchased Eurofins DiscoverX KINOMEscan
In short: as §1

CAMK1B = biological target: T4, CAMK1B (Homo sapiens, UniProt Q6P2M8)
T4 construct: purchased Eurofins DiscoverX KINOMEscan
In short: (§2)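 Active-site competition format. Unbound kinase fraction measured by affinity-ligand capture plus qPCR after 1 h at RT. Kd from 12-point half-log titration, maximum 33 μM.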

CASK = biological target: T5, CASK (Homo sapiens, UniProt O14936)
T5 construct: purchased Eurofins DiscoverX KINOMEscan
In short: as §1

CDC2L1 = biological target: T6, CDC2L1 (Homo sapiens, UniProt P21127)
T6 construct: purchased Eurofins DiscoverX KINOMEscan
In short: as §1

EPHB2 = biological target: T7, EPHB2 (Homo sapiens, UniProt P29323)
T7 construct: purchased Eurofins DiscoverX KINOMEscan
In short: as §2

ERK2 = biological target: T8, ERK2 (Homo sapiens, UniProt P28482)
T8 construct: purchased Eurofins DiscoverX KINOMEscan
In short: as §1

ERK8 = biological target: T9, ERK8 (Homo sapiens, UniProt Q8TD08)
T9 construct: purchased Eurofins DiscoverX KINOMEscan
In short: as §2

FGR = biological target: T10, FGR (Homo sapiens, UniProt P09769)
T10 construct: purchased Eurofins DiscoverX KINOMEscan
In short: as §2

FLT3 (D835Y) = biological target: T11, FLT3 (D835Y) (Homo sapiens, UniProt P36888, D835Y)
T11 construct: purchased Eurofins DiscoverX KINOMEscan
In short: as §1

FLT4 = biological target: T12, FLT4 (Homo sapiens, UniProt P35916)
T12 construct: purchased Eurofins DiscoverX KINOMEscan
In short: as §1

FRK = biological target: T13, FRK (Homo sapiens, UniProt P42685)
T13 construct: purchased Eurofins DiscoverX KINOMEscan
In short: as §1

HIPK4 = biological target: T14, HIPK4 (Homo sapiens, UniProt Q8NE63)
T14 construct: purchased Eurofins DiscoverX KINOMEscan
In short: as §2

IKK-β = biological target: T15, IKK-β (Homo sapiens, UniProt O14920)
T15 construct: purchased Eurofins DiscoverX KINOMEscan
In short: as §2

KIT (V559D, V654A) = biological target: T16, KIT (V559D, V654A) (Homo sapiens, UniProt P10721, V559D/V654A)
T16 construct: purchased Eurofins DiscoverX KINOMEscan
In short: as §2

LYN = biological target: T17, LYN (Homo sapiens, UniProt P07948)
T17 construct: purchased Eurofins DiscoverX KINOMEscan
In short: as §1

MAP3K2 = biological target: T18, MAP3K2 (Homo sapiens, UniProt Q9Y2U5)
T18 construct: purchased Eurofins DiscoverX KINOMEscan
In short: as §1

MAP4K3 = biological target: T19, MAP4K3 (Homo sapiens, UniProt Q8IVH8)
T19 construct: purchased Eurofins DiscoverX KINOMEscan
In short: as §1

MEK2 = biological target: T20, MEK2 (Homo sapiens, UniProt P36507)
T20 construct: purchased Eurofins DiscoverX KINOMEscan
In short: as §2

MET = biological target: T21, MET (Homo sapiens, UniProt P08581)
T21 construct: purchased Eurofins DiscoverX KINOMEscan
In short: as §1

MYO3B = biological target: T22, MYO3B (Homo sapiens, UniProt Q8WXR4)
T22 construct: purchased Eurofins DiscoverX KINOMEscan
In short: as §2

NIM1 = biological target: T23, NIM1 (Homo sapiens, UniProt Q8IY84)
T23 construct: purchased Eurofins DiscoverX KINOMEscan
In short: as §1

PFTAIRE2 = biological target: T24, PFTAIRE2 (Homo sapiens, UniProt Q96Q40)
T24 construct: purchased Eurofins DiscoverX KINOMEscan
In short: as §2

PIK4CB = biological target: T25, PIK4CB (Homo sapiens, UniProt Q9UBF8)
T25 construct: purchased Eurofins DiscoverX KINOMEscan
In short: as §2

PIKFYVE = biological target: T26, PIKFYVE (Homo sapiens, UniProt Q9Y2I7)
T26 construct: purchased Eurofins DiscoverX KINOMEscan
In short: as §1

PKN1 = biological target: T27, PKN1 (Homo sapiens, UniProt Q16512)
T27 construct: purchased Eurofins DiscoverX KINOMEscan
In short: as §1

PKN2 = biological target: T28, PKN2 (Homo sapiens, UniProt Q16513)
T28 construct: purchased Eurofins DiscoverX KINOMEscan
In short: as §1

PRKD1 = biological target: T29, PRKD1 (Homo sapiens, UniProt Q15139)
T29 construct: purchased Eurofins DiscoverX KINOMEscan
In short: as §1

PRKD2 = biological target: T30, PRKD2 (Homo sapiens, UniProt Q9BZL6)
T30 construct: purchased Eurofins DiscoverX KINOMEscan
In short: as §1

QSK = biological target: T31, QSK (Homo sapiens, UniProt Q9Y2K2)
T31 construct: purchased Eurofins DiscoverX KINOMEscan
In short: as §1

RIOK2 = biological target: T32, RIOK2 (Homo sapiens, UniProt Q9BVS4)
T32 construct: purchased Eurofins DiscoverX KINOMEscan
In short: as §1

RIOK3 = biological target: T33, RIOK3 (Homo sapiens, UniProt O14730)
T33 construct: purchased Eurofins DiscoverX KINOMEscan
In short: as §2

RIPK4 = biological target: T34, RIPK4 (Homo sapiens, UniProt P57078)
T34 construct: purchased Eurofins DiscoverX KINOMEscan
In short: as §1

ROCK2 = biological target: T35, ROCK2 (Homo sapiens, UniProt O75116)
T35 construct: purchased Eurofins DiscoverX KINOMEscan
In short: as §2

[1] = biological target: T36, RPS6KA5 (Kin. Dom.1-N-term.) (Homo sapiens, UniProt O75582)
T36 construct: RPS6KA5 (Kin. Dom.1-N-term.); purchased Eurofins DiscoverX KINOMEscan
In short: as §1

TESK1 = biological target: T37, TESK1 (Homo sapiens, UniProt Q15569)
T37 construct: purchased Eurofins DiscoverX KINOMEscan
In short: as §2

WEE1 = biological target: T38, WEE1 (Homo sapiens, UniProt P30291)
T38 construct: purchased Eurofins DiscoverX KINOMEscan
In short: as §1

WNK4 = biological target: T39, WNK4 (Homo sapiens, UniProt Q96J92)
T39 construct: purchased Eurofins DiscoverX KINOMEscan
In short: as §1

T14 sequence (Q8NE63 whole entry): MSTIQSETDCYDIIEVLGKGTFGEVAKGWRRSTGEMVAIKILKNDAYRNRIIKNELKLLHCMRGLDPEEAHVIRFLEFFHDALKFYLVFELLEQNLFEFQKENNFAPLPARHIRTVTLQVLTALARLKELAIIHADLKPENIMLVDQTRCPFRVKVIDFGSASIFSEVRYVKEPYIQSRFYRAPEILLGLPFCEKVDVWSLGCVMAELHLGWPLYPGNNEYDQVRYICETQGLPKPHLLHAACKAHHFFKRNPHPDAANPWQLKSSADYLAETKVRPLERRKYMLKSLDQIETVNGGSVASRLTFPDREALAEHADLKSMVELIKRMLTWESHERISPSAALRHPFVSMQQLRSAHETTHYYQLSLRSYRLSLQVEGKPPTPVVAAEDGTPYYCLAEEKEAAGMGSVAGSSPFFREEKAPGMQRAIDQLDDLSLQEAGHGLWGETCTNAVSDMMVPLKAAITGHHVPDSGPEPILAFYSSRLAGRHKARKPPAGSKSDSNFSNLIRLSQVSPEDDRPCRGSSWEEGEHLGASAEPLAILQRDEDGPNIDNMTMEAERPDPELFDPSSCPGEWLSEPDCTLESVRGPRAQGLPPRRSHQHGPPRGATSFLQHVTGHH
T26 sequence (Q9Y2I7 whole entry): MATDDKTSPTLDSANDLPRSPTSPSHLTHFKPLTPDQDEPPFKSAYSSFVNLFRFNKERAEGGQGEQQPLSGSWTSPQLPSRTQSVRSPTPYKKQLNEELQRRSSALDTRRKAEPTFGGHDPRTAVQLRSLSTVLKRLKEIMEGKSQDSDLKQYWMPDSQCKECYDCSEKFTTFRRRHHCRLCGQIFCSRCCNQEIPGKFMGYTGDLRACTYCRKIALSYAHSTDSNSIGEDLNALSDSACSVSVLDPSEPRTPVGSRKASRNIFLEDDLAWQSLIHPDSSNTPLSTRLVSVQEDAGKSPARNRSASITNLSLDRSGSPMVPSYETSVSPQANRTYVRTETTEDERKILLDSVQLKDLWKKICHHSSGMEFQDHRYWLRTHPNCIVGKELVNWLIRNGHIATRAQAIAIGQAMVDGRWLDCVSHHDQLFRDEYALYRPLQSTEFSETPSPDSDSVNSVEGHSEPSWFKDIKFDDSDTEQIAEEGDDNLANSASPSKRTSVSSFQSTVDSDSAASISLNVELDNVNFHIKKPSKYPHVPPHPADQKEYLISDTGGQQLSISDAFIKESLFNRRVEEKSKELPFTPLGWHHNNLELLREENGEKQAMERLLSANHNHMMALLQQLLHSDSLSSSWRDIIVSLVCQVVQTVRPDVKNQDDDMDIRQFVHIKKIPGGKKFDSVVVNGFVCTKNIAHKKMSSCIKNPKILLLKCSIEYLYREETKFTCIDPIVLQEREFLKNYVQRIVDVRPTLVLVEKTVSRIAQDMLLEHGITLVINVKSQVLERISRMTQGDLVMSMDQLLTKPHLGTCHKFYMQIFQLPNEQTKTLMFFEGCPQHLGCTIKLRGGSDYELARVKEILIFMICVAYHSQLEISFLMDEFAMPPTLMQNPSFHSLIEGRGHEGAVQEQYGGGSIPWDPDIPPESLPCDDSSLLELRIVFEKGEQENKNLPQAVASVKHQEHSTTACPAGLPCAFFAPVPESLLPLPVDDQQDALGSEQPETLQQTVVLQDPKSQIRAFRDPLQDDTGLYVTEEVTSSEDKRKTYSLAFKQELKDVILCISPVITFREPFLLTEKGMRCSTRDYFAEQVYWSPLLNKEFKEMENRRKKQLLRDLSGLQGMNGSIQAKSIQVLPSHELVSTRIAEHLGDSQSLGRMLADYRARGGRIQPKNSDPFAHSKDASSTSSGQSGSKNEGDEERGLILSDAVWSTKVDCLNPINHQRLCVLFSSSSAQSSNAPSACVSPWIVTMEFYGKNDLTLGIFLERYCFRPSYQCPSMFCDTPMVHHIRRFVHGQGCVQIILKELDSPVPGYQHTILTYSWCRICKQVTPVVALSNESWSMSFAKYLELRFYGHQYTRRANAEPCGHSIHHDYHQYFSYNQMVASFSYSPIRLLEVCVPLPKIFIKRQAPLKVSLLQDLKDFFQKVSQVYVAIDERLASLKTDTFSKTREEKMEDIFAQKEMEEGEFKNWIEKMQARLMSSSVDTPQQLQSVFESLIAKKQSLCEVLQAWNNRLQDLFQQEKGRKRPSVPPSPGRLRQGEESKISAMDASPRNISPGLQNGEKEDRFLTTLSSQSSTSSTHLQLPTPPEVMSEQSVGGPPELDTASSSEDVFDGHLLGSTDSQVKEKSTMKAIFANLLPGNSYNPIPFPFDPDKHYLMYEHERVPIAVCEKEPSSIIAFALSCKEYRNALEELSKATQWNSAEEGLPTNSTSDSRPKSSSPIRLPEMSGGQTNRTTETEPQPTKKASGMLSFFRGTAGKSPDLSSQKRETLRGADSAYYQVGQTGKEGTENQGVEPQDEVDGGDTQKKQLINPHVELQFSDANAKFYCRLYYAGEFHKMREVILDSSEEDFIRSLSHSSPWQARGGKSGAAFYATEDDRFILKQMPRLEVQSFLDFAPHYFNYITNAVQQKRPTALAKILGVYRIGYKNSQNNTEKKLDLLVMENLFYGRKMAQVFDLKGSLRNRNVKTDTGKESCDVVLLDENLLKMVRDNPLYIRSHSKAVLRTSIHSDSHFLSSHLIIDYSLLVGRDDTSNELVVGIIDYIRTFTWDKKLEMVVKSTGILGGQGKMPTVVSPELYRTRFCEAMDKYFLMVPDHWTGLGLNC
T9 sequence (Q8TD08 whole entry): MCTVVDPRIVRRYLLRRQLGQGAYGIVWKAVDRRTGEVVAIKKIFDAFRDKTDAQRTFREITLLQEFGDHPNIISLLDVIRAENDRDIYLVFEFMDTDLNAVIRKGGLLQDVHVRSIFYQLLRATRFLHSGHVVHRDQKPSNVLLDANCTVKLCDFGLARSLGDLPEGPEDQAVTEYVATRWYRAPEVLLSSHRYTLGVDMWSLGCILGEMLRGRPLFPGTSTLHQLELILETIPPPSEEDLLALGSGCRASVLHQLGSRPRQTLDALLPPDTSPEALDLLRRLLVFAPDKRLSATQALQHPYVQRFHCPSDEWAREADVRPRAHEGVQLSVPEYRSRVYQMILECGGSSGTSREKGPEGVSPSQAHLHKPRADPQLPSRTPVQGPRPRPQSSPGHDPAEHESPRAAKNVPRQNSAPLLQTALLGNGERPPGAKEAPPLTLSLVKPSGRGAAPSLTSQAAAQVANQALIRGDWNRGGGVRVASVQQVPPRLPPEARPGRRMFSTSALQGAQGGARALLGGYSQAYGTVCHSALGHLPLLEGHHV
T24 sequence (Q96Q40 whole entry): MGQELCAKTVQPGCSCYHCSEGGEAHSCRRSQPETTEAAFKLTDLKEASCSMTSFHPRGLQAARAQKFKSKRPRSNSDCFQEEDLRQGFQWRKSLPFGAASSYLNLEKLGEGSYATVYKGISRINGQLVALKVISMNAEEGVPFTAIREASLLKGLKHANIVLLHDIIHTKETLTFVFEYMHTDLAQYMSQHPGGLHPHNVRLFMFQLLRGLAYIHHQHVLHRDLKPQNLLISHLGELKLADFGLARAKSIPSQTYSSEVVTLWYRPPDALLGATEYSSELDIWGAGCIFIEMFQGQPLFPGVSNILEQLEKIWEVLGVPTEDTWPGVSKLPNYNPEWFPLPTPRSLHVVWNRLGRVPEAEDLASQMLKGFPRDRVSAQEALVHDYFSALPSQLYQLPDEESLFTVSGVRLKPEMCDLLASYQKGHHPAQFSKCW
T25 sequence (Q9UBF8 whole entry): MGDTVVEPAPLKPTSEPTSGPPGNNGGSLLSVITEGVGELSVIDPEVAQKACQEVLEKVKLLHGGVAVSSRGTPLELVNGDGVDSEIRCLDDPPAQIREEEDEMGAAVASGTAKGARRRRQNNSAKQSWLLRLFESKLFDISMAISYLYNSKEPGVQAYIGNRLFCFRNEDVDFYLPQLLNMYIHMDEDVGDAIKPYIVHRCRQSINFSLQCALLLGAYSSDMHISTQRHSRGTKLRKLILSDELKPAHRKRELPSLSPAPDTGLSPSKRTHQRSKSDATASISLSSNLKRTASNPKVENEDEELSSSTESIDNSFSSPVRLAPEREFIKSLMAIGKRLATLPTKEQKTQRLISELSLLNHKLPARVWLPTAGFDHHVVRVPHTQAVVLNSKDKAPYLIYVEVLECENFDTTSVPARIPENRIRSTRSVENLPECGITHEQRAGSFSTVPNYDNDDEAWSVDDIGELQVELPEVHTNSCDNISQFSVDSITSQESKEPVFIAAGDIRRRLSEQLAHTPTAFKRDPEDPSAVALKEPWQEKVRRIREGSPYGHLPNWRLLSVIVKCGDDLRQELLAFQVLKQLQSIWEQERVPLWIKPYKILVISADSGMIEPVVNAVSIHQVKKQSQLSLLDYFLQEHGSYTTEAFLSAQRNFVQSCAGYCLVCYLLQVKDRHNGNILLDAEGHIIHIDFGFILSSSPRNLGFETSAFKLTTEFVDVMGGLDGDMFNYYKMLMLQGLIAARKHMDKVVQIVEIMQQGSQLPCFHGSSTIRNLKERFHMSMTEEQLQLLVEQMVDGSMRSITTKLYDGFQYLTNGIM
T8 sequence (P28482 whole entry): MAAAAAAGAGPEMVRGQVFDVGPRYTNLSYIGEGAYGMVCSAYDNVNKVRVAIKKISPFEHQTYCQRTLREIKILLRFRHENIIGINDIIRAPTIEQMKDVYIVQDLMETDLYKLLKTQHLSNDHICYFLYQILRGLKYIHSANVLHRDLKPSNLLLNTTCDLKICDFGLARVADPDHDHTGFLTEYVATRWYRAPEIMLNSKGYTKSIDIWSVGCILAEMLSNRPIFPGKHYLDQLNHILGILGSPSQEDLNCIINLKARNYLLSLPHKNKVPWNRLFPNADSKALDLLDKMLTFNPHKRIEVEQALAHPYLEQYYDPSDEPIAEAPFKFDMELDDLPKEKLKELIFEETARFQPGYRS

`O=C1Nc2c(cc([N+](=O)[O-])c3c2CCCC3)C1=NO` [Compound 5d, 3-(Hydroxyimino)-5-nitro-1,3,6,7,8,9-hexahydro-2H-benzo[g]indol-2-one] showed an inhibition at 10 µM (ABL1 (H396P)-non-P) of 65%, an inhibition at 10 µM (ABL1 (Q252H)-P) of 47% and an inhibition at 10 µM (ABL1 (T315I)-non-P) of 1%. The inhibition at 10 µM (CAMK1B) was 12%, the inhibition at 10 µM (CASK) was 2% and the inhibition at 10 µM (CDC2L1) was 0%. It also gave an inhibition at 10 µM (EPHB2) of 11%, an inhibition at 10 µM (ERK2) of 8% and an inhibition at 10 µM (ERK8) of 50%. It also gave an inhibition at 10 µM (FGR) of 0%, an inhibition at 10 µM (FLT3 (D835Y)) of 54% and an inhibition at 10 µM (FLT4) of 8%. The inhibition at 10 µM (FRK) was 0%, the inhibition at 10 µM (HIPK4) was 63% and the inhibition at 10 µM (IKK-β) was 50%. The inhibition at 10 µM (KIT (V559D, V654A)) was 0%, the inhibition at 10 µM (LYN) was 9% and the inhibition at 10 µM (MAP3K2) was 79%. It also gave an inhibition at 10 µM (MAP4K3) of 11%, an inhibition at 10 µM (MEK2) of 87% and an inhibition at 10 µM (MET) of 63%. It also gave an inhibition at 10 µM (MYO3B) of 30%, an inhibition at 10 µM (NIM1) of 52% and an inhibition at 10 µM (PFTAIRE2) of 6%. It also gave an inhibition at 10 µM (PIK4CB) of 95.9%, an inhibition at 10 µM (PIKFYVE) of 28% and an inhibition at 10 µM (PKN1) of 9%. The inhibition at 10 µM (PKN2) was 84%, the inhibition at 10 µM (PRKD1) was 61% and the inhibition at 10 µM (PRKD2) was 77%. The inhibition at 10 µM (QSK) was 14%, the inhibition at 10 µM (RIOK2) was 80% and the inhibition at 10 µM (RIOK3) was 19%. For the same molecule, the inhibition at 10 µM (RIPK4) was 55%, the inhibition at 10 µM (ROCK2) was 54% and the inhibition at 10 µM [1] was 4%. The inhibition at 10 µM (TESK1) was 9%, the inhibition at 10 µM (WEE1) was 16% and the inhibition at 10 µM (WNK4) was 1%.
